Data from ChEMBL document CHEMBL3992485 (Medchemcomm, 2016).
The source made the active and inactive calls. No cut-off for these calls is given here.

Key:
HeLa [1] = experiment: Cell cycle arrest in human HeLa cells assessed as accumulation at G2/M phase at 0.5 uM after 36 hrs by propidium iodide staining based flow cytometry (reference value: 8.14%); type: functional
HeLa [2] = experiment: Induction of apoptosis in human HeLa cells assessed as necrotic cells at 0.5 uM after 24 hrs by Annexin-V-FITC/propidium iodide staining based flow cytometry (reference value: 0.35%); type: functional
HeLa [3] = experiment: Cell cycle arrest in human HeLa cells assessed as accumulation at G2/M phase at 0.5 uM after 24 hrs by propidium iodide staining based flow cytometry (reference value: 8.14%); type: functional
HeLa [4] = experiment: Induction of apoptosis in human HeLa cells assessed as early apoptotic cells at 0.5 uM after 12 hrs by Annexin-V-FITC/propidium iodide staining based flow cytometry (reference value: 6.02%); type: functional
HeLa [5] = experiment: Cell cycle arrest in human HeLa cells assessed as accumulation at S phase at 0.1 uM after 24 hrs by propidium iodide staining based flow cytometry (reference value: 49.41%); type: functional
HeLa [6] = experiment: Cell cycle arrest in human HeLa cells assessed as accumulation at G1 phase at 0.5 uM after 36 hrs by propidium iodide staining based flow cytometry (reference value: 79.19%); type: functional
HeLa [7] = experiment: Cell cycle arrest in human HeLa cells assessed as accumulation at S phase at 0.2 uM after 12 hrs by propidium iodide staining based flow cytometry (reference value: 49.41%); type: functional
HeLa [8] = experiment: Inhibition of microtubule polymerization in human HeLa cells assessed as appearance of short and curled microtubule fragments at 0.4 uM after 24 hrs by DAPI staining based confocal microscopic analysis; type: cell-based
HeLa [9] = experiment: Induction of apoptosis in human HeLa cells assessed as viable cells at 0.5 uM after 36 hrs by Annexin-V-FITC/propidium iodide staining based flow cytometry (reference value: 91%); type: functional; conditions: read-out: Activity
HeLa [10] = experiment: Induction of apoptosis in human HeLa cells assessed as necrotic cells at 0.8 uM after 24 hrs by Annexin-V-FITC/propidium iodide staining based flow cytometry (reference value: 0.084%); type: functional
HeLa [11] = experiment: Cell cycle arrest in human HeLa cells assessed as accumulation at G2/M phase at 0.5 uM by propidium iodide staining based flow cytometry; type: functional; conditions: TDE = time-dependent effect
HeLa [12] = experiment: Induction of apoptosis in human HeLa cells assessed as necrotic cells at 0.5 uM after 12 hrs by Annexin-V-FITC/propidium iodide staining based flow cytometry (reference value: 0.35%); type: functional
HeLa [13] = experiment: Induction of apoptosis in human HeLa cells assessed as necrotic cells at 0.4 uM after 24 hrs by Annexin-V-FITC/propidium iodide staining based flow cytometry (reference value: 0.084%); type: functional
HeLa [14] = experiment: Cell cycle arrest in human HeLa cells assessed as accumulation at S phase at 0.4 uM after 12 hrs by propidium iodide staining based flow cytometry (reference value: 49.41%); type: functional
HeLa [15] = experiment: Induction of apoptosis in human HeLa cells assessed as late apoptotic cells at 0.4 uM after 24 hrs by Annexin-V-FITC/propidium iodide staining based flow cytometry (reference value: 3.1%); type: functional
HeLa [16] = experiment: Induction of apoptosis in human HeLa cells assessed as late apoptotic cells at 0.8 uM after 24 hrs by Annexin-V-FITC/propidium iodide staining based flow cytometry (reference value: 3.1%); type: functional
HeLa [17] = experiment: Induction of apoptosis in human HeLa cells assessed as viable cells at 0.4 uM after 24 hrs by Annexin-V-FITC/propidium iodide staining based flow cytometry (reference value: 94.4%); type: functional; conditions: read-out: Activity
HeLa [18] = experiment: Induction of apoptosis in human HeLa cells assessed as early apoptotic cells at 0.5 uM after 24 hrs by Annexin-V-FITC/propidium iodide staining based flow cytometry (reference value: 6.02%); type: functional
HeLa [19] = experiment: Inhibition of microtubule polymerization in human HeLa cells at 0.2 uM after 24 hrs by DAPI staining based confocal microscopic analysis; type: cell-based
HeLa [20] = experiment: Antiproliferative activity against human HeLa cells measured after 24 hrs by MTT assay; type: functional, cell-based
HeLa [21] = experiment: Induction of apoptosis in human HeLa cells assessed as late apoptotic cells at 0.5 uM after 12 hrs by Annexin-V-FITC/propidium iodide staining based flow cytometry (reference value: 2.64%); type: functional
HeLa [22] = experiment: Cell cycle arrest in human HeLa cells assessed as accumulation at S phase at 0.8 uM after 12 hrs by propidium iodide staining based flow cytometry (reference value: 49.41%); type: functional
HeLa [23] = experiment: Cell cycle arrest in human HeLa cells assessed as accumulation at G1 phase at 0.8 uM after 12 hrs by propidium iodide staining based flow cytometry (reference value: 85.81%); type: functional
HeLa [24] = experiment: Induction of apoptosis in human HeLa cells assessed as viable cells at 0.5 uM after 24 hrs by Annexin-V-FITC/propidium iodide staining based flow cytometry (reference value: 91%); type: functional; conditions: read-out: Activity
HeLa [25] = experiment: Cell cycle arrest in human HeLa cells assessed as accumulation at G1 phase at 0.2 uM after 12 hrs by propidium iodide staining based flow cytometry (reference value: 85.81%); type: functional
HeLa [26] = experiment: Induction of apoptosis in human HeLa cells assessed as early apoptotic cells at 0.4 uM after 24 hrs by Annexin-V-FITC/propidium iodide staining based flow cytometry (reference value: 2.41%); type: functional

- IC50 (HeLa [20]): 240 nM
Compound: CCn1cc(C(=O)N2CCN(S(=O)(=O)c3c(C(C)C)cc(C(C)C)cc3C(C)C)CC2)c2ccccc21
- Activity (HeLa [1]): 65.29%
- Activity (HeLa [2]): 0.303%
- Activity (HeLa [3]): 54.57%
- Activity (HeLa [4]): 8.12%
- Activity (HeLa [5]): 49.47%
- Activity (HeLa [6]): 1.19%
- Activity (HeLa [7]): 61.18%
- inhibition (HeLa [8]): Active
- viability at 0.5 µM (HeLa [9]): 53.1%
- Activity (HeLa [10]): 1.05%
- Activity (HeLa [11]): Tde
- Activity (HeLa [12]): 0.03%
- Activity (HeLa [13]): 0.581%
- Activity (HeLa [14]): 40.08%
- Activity (HeLa [15]): 12.8%
- Activity (HeLa [16]): 22.4%
- viability at 0.4 µM (HeLa [17]): 63.6%
- Activity (HeLa [18]): 20.1%
- inhibition (HeLa [19]): Active
- Activity (HeLa [21]): 3.97%
- Activity (HeLa [22]): 53.83%
- Activity (HeLa [23]): 10.02%
- viability at 0.5 µM (HeLa [24]): 72.7%
- Activity (HeLa [25]): 31.86%
- Activity (HeLa [26]): 23.1%
